Data taken from patent US20140105919A1, “SYNERGISTIC INHIBITION OF ERBB2/ERBB3 SIGNAL PATHWAYS IN THE TREATMENT OF CANCER” (Institute for Cancer Research d/b/a The Research Institute …, priority 2011, published 2014).

How the values were obtained:
Type in all cases: cell-based
BT474 cells = assay: Cell sensitization to MM-111 and gamma-secretase inhibitor, CellTiter-Blue viability; conditions: BT474, 72 hrs; Compound E 1 μM, MM-111 2 μM, alone or combined; vs DMSO
Experimental: Inhibition of the Notch pathway was carried out with a compound. Breast cancer cells (BT474 cells) were plated in 96-well plates in DMEM/F12 media with 1% FBS and incubated in a humidified CO2 incubator at 37° C. for 24 hours prior to drug treatment. The media was replaced with DMEM/F12 media with 1% FBS containing DMSO, 1 μM Compound E (Santa Cruz, SC-221433), 2 μM MM-111 (Merrimack Pharmaceuticals), or combined Compound E and MM-111. Cells were incubated in the presence of drug for 72 hrs. CellTiter-Blue® (Promega) was used to measure cell viability according to the standard protocol. The total incubation time in the presence of CellTiter-Blue® was 4 hours, and fluorescence was measured using a Perkin Elmer Envision Plate Reader.

[1] = system: Notch signaling (CBF1 reporter) in BT-474 cells; assay: Notch-dependent activation of CBF-1 reporter (Dual-Luciferase Assay); conditions: MM-111 and Compound E
Experimental: BT-474 cells were co-transfected with CBF1::firefly luciferase and pRL-TK (renilla luciferase) as an internal control for transfection efficiency. Cells were then treated with MM-111, MM-111 and Compound E, or Rituximab (control antibody), and the ratio of firefly/renilla expression was measured using the Dual-Luciferase Assay (Promega) according to the manufacturer's instructions.

[2] = system: Notch target genes in MB-361/DYT2 cells; assay: Real time PCR of endogenous Notch target genes HES1, HES5, HEY1; conditions: MB361/DYT2; compared to untreated, DMSO or Rituximab
Experimental: MB-361/DYT2 cells were left untreated (NT) or treated with DMSO (vehicle for Compound E), rituximab (control antibody), Compound E, MM-111, or MM-111 and Compound E. Total RNA was extracted from cells using the RNeasy kit (Qiagen). Total RNA was reverse transcribed to cDNA, and real time PCR was performed, using ABI primer/probe sets, on cDNAs to detect relative expression of the validated Notch target genes HES1 (ABI Assay ID Hs00172878_m1), HES5 (ABI Assay ID Hs01387463_g1), or HEY1 (ABI Assay ID Hs01114113_m1).

[3] = system: MB361/DYT2 breast cancer cells; assay: secondary validation screen with single siGENOME siRNAs with or without MM-111, CellTiter-Blue viability; set-up: Vehicle (viability score) / Drug (viability score): scale not given here; conditions: for Ratio (drug:vehicle viability): single siRNA; for Drug (viability score): single siRNA and MM-111; for Vehicle (viability score): single siRNA only (vehicle)
Experimental: Subsets of targets that met criteria of being expressed in the cells and having an FDR of <5% or being expressed in the cells, having an FDR <20%, and having a known connection to ErbB signaling, were validated in a secondary screen in which MB361/DYT2 breast cancer cells were treated with siRNA molecules from the Dharmacon® siGENOME library (Dharmacon, Inc.). Parallel cells were treated with the siRNA only (vehicle) or both the siRNA and the ErbB2/ErbB3 bispecific antibody MM-111, and sensitization of the cells was measured by the CellTiter-Blue® (Promega) viability assay.

Row | Compound | cell viability / cell killing (BT474 cells) | MM-111-induced CBF1 reporter activity [1] | expression of Notch target genes HES1, HES5, and HEY1 [2] | Ratio (drug:vehicle viability) [3] | Drug (viability score) [3] | Vehicle (viability score) [3]
1 | C[C@H](NC(=O)Cc1cc(F)cc(F)c1)C(=O)N[C@H]1N=C(c2ccccc2)c2ccccc2N(C)C1=O [Compound E] | no effect on viability | the activity is blocked | reduced |  |  | 
2 | CAUAAGCCCUGCAAGAAUG (listed as RNA, chemistry not given here; listed as Homo sapiens) [SEQ ID NO: 17, Dharmacon siGENOME siRNA targeting DLL1] |  |  |  | 0.823 | 0.812 | 0.987
3 | CCAAAGGCCUGACCGUUAA (listed as RNA, chemistry not given here; listed as Homo sapiens) [SEQ ID NO: 26, Dharmacon siGENOME siRNA targeting AAMP] |  |  |  | 0.844 | 0.821 | 0.973
4 | CCACACGGUUUAAGUCUAU (listed as RNA, chemistry not given here; listed as Homo sapiens) [SEQ ID NO: 50, Dharmacon siGENOME siRNA targeting RFNG] |  |  |  | 0.939 | 1.250 | 1.331
5 | GAAGAUACUUGGCACUAUU (listed as RNA, chemistry not given here; listed as Homo sapiens) [SEQ ID NO: 21, Dharmacon siGENOME siRNA targeting SC4MOL] |  |  |  | 0.877 | 0.955 | 1.089
6 | GCAGCAAGACCAAGAAAUC (listed as RNA, chemistry not given here; listed as Homo sapiens) [SEQ ID NO: 57, Dharmacon siGENOME siRNA targeting CYR61] |  |  |  | 0.856 | 0.846 | 0.988
7 | GGGUCGCUGUGAUGAAAUU (listed as RNA, chemistry not given here; listed as Homo sapiens) [SEQ ID NO: 45, Dharmacon siGENOME siRNA targeting DCI] |  |  |  | 0.762 | 0.627 | 0.823
8 | GGUGUUGUCUGGUCAGUAA (listed as RNA, chemistry not given here; listed as Homo sapiens) [SEQ ID NO: 19, Dharmacon siGENOME siRNA targeting NLK] |  |  |  | 0.776 | 0.991 | 0.993
9 | GGUUGUGCCUGGAGGUGGA (listed as RNA, chemistry not given here; listed as Homo sapiens) [SEQ ID NO: 24, Dharmacon siGENOME siRNA targeting TPT1] |  |  |  | 0.845 | 0.775 | 
